Assays:
Type in all cases: cell-based, ovine
fibrin gel constructs [1] = assay: Total weight of fibrin gel vessel constructs; conditions: 10 and 20 μg/ml aprotinin, two week time point
Experimental: Vessel constructs were left on 4.0 mm silastic tubing in which they were molded, and placed in a 50 ml conical with 30 ml of culture medium. The caps (fixed with 0.22 μm filter) were either attached to the pulsation device or left unattached. The constructs were incubated in a CO2 incubator at 37° C. and 5% CO2. Forty-eight hours after vessel molding, aprotinin (0-200 μg/ml) was added. Some of the vessel constructs were connected to a pneumatic pulsation system, representing a 5-10% radial distention at 60 beats/minute, and one of two pulsation time interval schemes (continuous or 1 hour per 12 hours). Aprotinin (Sigma), a competitive serine protease inhibitor which forms stable complexes with and blocks the active site of enzymes, was added to the fibrin mixture at 0, 10, 20, or 200 μg/ml of vessel medium. Aprotinin was reconstituted using culture medium, filter sterilized through a 0.22 μm syringe filter, and stored at 2.0 mg/ml/vial at 2-8° C. Tissue sections were weighed and some were placed in 10% buffered formalin for paraffin embedding, while others were placed in isolated tissue baths. The weights of the sections were added to obtain total construct weight. […]

fibrin gel constructs [2] = assay: Hydroxyproline assay for collagen content of constructs
Experimental: Native tissue and vessel constructs were assayed for hydroxyproline using a modification of the methods of Reddy and Enwemeka (Clinical Biochemistry 29(3):225-9 (1996), which is hereby incorporated by reference in its entirety) to determine total collagen content. Tissues were first dabbed dry, weighed, transferred to eppendorf tubes, and then lyophilized. Samples were mixed with 2N sodium hydroxide in a total volume of 50 μl and hydrolyzed by autoclaving at 120° C. for 20 min. To the hydrolyzate was added 450 μl of chloramines-T solution containing 1.27 gm chloramines-T (Sigma) dissolved in 20 ml 50% n-propanol (Fisher) and brought to 100 ml with acetate citrate buffer containing 120 gm sodium acetate trihydrate (Fisher), 46 gm citric acid (Fisher), 12 ml acetic acid (Fisher), 34 gm sodium hydroxide bringing to 1 liter with distilled water and pH to 6.5. Mixing gently, the oxidation was allowed to proceed for 25 minutes at room temp. Samples were then gently mixed with 500 μl of Ehrlich's Reagent containing 15 gm p-dimethylaminobenzaldehyde (p-DMBA) (Sigma) dissolved in n-propanol/perchloric acid (2:1 v/v) (Fisher) and brought to 100 ml. The resulting 96-well plate of 200 μl samples was read using a spectrophotometer set to 550 nm to determine optical density, which was then correlated with collagen amount using a standard curve and a conversion factor of 8.0 μg collagen to 1 μg 4-hydroxyproline (Edwards and O'Brien, Clinica Chimica Acta 104(2):161-7 (1980), which is hereby incorporated by reference in its entirety).
Hydroxyproline is an imino acid found specifically in type I collagen at 12.5% of the total by weight. This spectrophotometric assay was used to quantitate directly the collagen content of tissue homogenates. The values are represented as μg of collagen/mg of tissue, dry weight.

fibrin gel constructs [3] = assay: PCNA staining, percentage of proliferating cells
Experimental: Proliferating cell nuclear antigen stain (“PCNA”) was used to identify and quantitate the percentage of proliferating cells within the tissue-engineered vessel constructs of the present invention. PCNA is a 36 kD molecule highly conserved between species. PCNA functions as a co-factor for DNA polymerase delta in S phase and also during DNA synthesis associated with repair. The PCNA molecule has a half life greater than 20 hours and, therefore, may detect non-proliferating cells in Go phase. Tissue section were fixed in 10% buffered formalin, and paraffin embedded. Tissue sections were cut at 4 μm and placed on positive slides. Sections were then deparaffinised and rehydrated to distilled water. Endogenous peroxidase was blocked by placing sections in […] for 10 minutes and then washed in tap water. Antigen retrieval methods were then applied. Sections were either boiled in 0.01M citrate buffer, or placed in a microwave for 30 seconds on low power. Sections were then washed 1×5 minutes in […] (TBS). Sections were placed in diluted normal serum for 10 minutes, incubated with primary antibody, and washed in TBS 2×5 minutes. Sections were also incubated with biotinylated secondary antibody, and washed in TBS 2×5 minutes. Slides were then incubated in ABC reagent (streptavidin/peroxidase complex), and washed in TBS 2×5 minutes. Slides were incubated in DAB (peroxidase substrate), and washed thoroughly in running tap water. The slides were then counterstained with hematoxylin, dehydrated, and mounted. Proliferating cell nuclear antigen (PCNA) was used to identify cells that were in a proliferating state using histological staining methods. FIGS. 11A-D represent constructs that were stained at 1 week (FIGS. 11A and 11B) and 2 weeks (FIGS. 11C and 11D). The constructs in FIGS. 11A and 11C were under non-pulsed conditions. The constructs in FIGS. 11B and 11D were under pulsed conditions. The PCNA antibody was visualized with diaminobenzidine (DAB) and counter stained with hematoxylin. There was little staining visualized at the one week time point as compared to the two week time point for both the non-pulsed and pulsed constructs. The non-pulsed tissue was slightly greater at both one and two weeks. The PCNA staining was quantitated by counting the total number of positive cells per high powered field and dividing by the total number of cells in the same field to obtain percent of proliferation.

fibrin gel constructs [4] = assay: Cell density within vessel constructs (H&E histology)
Experimental: Histological sections of the vessel constructs that were previously prepared with H&E Stain were used to count total number of cells per area. Random high powered fields were measured using Photo Spot software to calculate the actual surface area. The hematoxylin nuclear stain was used to identify the number of cells per high powered field. This was then used to calculate the number cells per surface area (cells/mm^2). Cell density within vessel constructs of the present invention was calculated using histology sections stained with hematoxylin and eosin. Total number of cells were counted per high powered field, divided by the area measured using Photospot Advanced software, and reported as number of cells/mm^2. […] However, at 10 μg/ml aprotinin and thereafter, both groups were decreased and equal. The altered pulsation group ( 1/12 pulsation) (2 wks, 608±123 cells/mm^2, n=5) was equal to both non-pulsed and pulsed at 20 μg/ml aprotinin (FIG. 17). Considering the change in cell density over time (1, 2, 3, 4 and 8 weeks), they were similar at weeks 1 and 2. […] At weeks 4 and 8, there was a significant difference between the two groups (Non-pulsed: 1 wk, 613±140, n=2; 2 wk, 591±52, n=6; 3 wk, 817±43, n=2; 4 wk, 865±17, n=4; 8 wk, 751±101, n=6; Pulsed: 1 wk, 566±33, n=2; 2 wk, 448±71, n=5; 3 wk, 480±213, n=3; 4 wk, 175±25, n=4; 8 wk, 168±54, n=3) (FIG. 18).

fibrin gel constructs [5] = assay: Isolated tissue bath, constriction of construct rings
fibrin gel constructs [6] = assay: Isolated tissue bath, relaxation of norepinephrine constriction; conditions: for relaxation of norepinephrine constriction: SNAP 10^−5 M, norepinephrine 3×10^−6
[7] = altered pulsation (1 hour per 12 hours), 20 μg/ml aprotinin, 2 wks
[8] = non-pulsed, 10 μg/ml aprotinin, 14 days
[9] = non-pulsed, 20 μg/ml aprotinin, 4 wk
[10] = non-pulsed, 20 μg/ml aprotinin, 8 wk
[11] = non-pulsed, 20 μg/ml aprotinin, 14 days (2 wk)
[12] = non-pulsed, 200 μg/ml aprotinin, 14 days
[13] = pulsed, 10 μg/ml aprotinin, 14 days
[14] = pulsed, 20 μg/ml aprotinin, 4 wk
[15] = pulsed, 20 μg/ml aprotinin, 8 wk
[16] = pulsed, 20 μg/ml aprotinin, 14 days (2 wk)
[17] = pulsed, 200 μg/ml aprotinin, 14 days
[18] = non-pulsed, 20 μg/ml aprotinin, 1 wk
[19] = non-pulsed, 20 μg/ml aprotinin, 3 wk
[20] = pulsed, 20 μg/ml aprotinin, 1 wk
[21] = pulsed, 20 μg/ml aprotinin, 3 wk

aprotinin
increase in total tissue weight with later (48 hrs) addition of aprotinin (fibrin gel constructs [1]; non-pulsed): 50%
increase in total tissue weight with later (48 hrs) addition of aprotinin (fibrin gel constructs [1]; pulsed): 130%
collagen content (fibrin gel constructs [2]; [7]): 266.6 ± 20.9 µg/mg
collagen content (fibrin gel constructs [2]; [8]): 175.2 ± 42.3 µg/mg
collagen content (fibrin gel constructs [2]; [9]): 239.9 ± 73.2 µg/mg
collagen content (fibrin gel constructs [2]; [10]): 283.5 ± 80.3 µg/mg
collagen content (fibrin gel constructs [2]; [11]): 225.0 ± 30.2 µg/mg
collagen content (fibrin gel constructs [2]; [12]): 270.1 ± 46.2 µg/mg
collagen content (fibrin gel constructs [2]; [13]): 31.5 ± 22.5 µg/mg
collagen content (fibrin gel constructs [2]; [14]): 124.5 ± 25.1 µg/mg
collagen content (fibrin gel constructs [2]; [15]): 91.8 ± 24.3 µg/mg
collagen content (fibrin gel constructs [2]; [16]): 105.9 ± 16.7 µg/mg
collagen content (fibrin gel constructs [2]; [17]): 217.3 ± 21.0 µg/mg
percent of proliferation (PCNA positive cells) (fibrin gel constructs [3]; [7]): 26.3±5.0%
percent of proliferation (PCNA positive cells) (fibrin gel constructs [3]; [8]): 73.3±8.8%
percent of proliferation (PCNA positive cells) (fibrin gel constructs [3]; [18]): 20.44±44.0%
percent of proliferation (PCNA positive cells) (fibrin gel constructs [3]; [19]): 55.5±4.7%
percent of proliferation (PCNA positive cells) (fibrin gel constructs [3]; [9]): 20.1±7.6%
percent of proliferation (PCNA positive cells) (fibrin gel constructs [3]; [10]): 22.8±3. %
percent of proliferation (PCNA positive cells) (fibrin gel constructs [3]; [11]): 73.6±6.3%
percent of proliferation (PCNA positive cells) (fibrin gel constructs [3]; [12]): 2.9±0.9%
percent of proliferation (PCNA positive cells) (fibrin gel constructs [3]; [13]): 12.3±3.6%
percent of proliferation (PCNA positive cells) (fibrin gel constructs [3]; [20]): 41.7±31.1%
percent of proliferation (PCNA positive cells) (fibrin gel constructs [3]; [21]): 37.5±3.6%
percent of proliferation (PCNA positive cells) (fibrin gel constructs [3]; [14]): 28.0±6.9%
percent of proliferation (PCNA positive cells) (fibrin gel constructs [3]; [15]): 14.7±7.5%
percent of proliferation (PCNA positive cells) (fibrin gel constructs [3]; [16]): 89.6±2.6%
percent of proliferation (PCNA positive cells) (fibrin gel constructs [3]; [17]): 7.7±1.9%
cell density (fibrin gel constructs [4]; [7]): 608±123 cells/mm^2
cell density (fibrin gel constructs [4]; [8]): 731±108 cells/mm^2
cell density (fibrin gel constructs [4]; [18]): 613±140 cells/mm^2
cell density (fibrin gel constructs [4]; [19]): 817±43 cells/mm^2
cell density (fibrin gel constructs [4]; [9]): 865±17 cells/mm^2
cell density (fibrin gel constructs [4]; [10]): 751±101 cells/mm^2
cell density (fibrin gel constructs [4]; [11]): 591±52 cells/mm^2
cell density (fibrin gel constructs [4]; [12]): 635±98 cells/mm^2
cell density (fibrin gel constructs [4]; [13]): 611±180 cells/mm^2
cell density (fibrin gel constructs [4]; [20]): 566±33 cells/mm^2
cell density (fibrin gel constructs [4]; [21]): 480±213 cells/mm^2
cell density (fibrin gel constructs [4]; [14]): 175±25 cells/mm^2
cell density (fibrin gel constructs [4]; [15]): 168±54 cells/mm^2
cell density (fibrin gel constructs [4]; [16]): 448±71 cells/mm^2
cell density (fibrin gel constructs [4]; [17]): 390±59 cells/mm^2

[Cl-].[K+] [KCl]
constriction (fibrin gel constructs [5]; 118 mM KCl, non-pulsed constructs grown with 10 μg/ml aprotinin): 18446±4027 dynes/cm^2
constriction (fibrin gel constructs [5]; 118 mM KCl, non-pulsed constructs grown with 20 μg/ml aprotinin): 12244±2083 dynes/cm^2
constriction (fibrin gel constructs [5]; 118 mM KCl, non-pulsed constructs grown with 200 μg/ml aprotinin): 6056±2003 dynes/cm^2
constriction (fibrin gel constructs [5]; 118 mM KCl, pulsed constructs grown with 10 μg/ml aprotinin): 19274±8302 dynes/cm^2
constriction (fibrin gel constructs [5]; 118 mM KCl, pulsed constructs grown with 20 μg/ml aprotinin): 8896±1347 dynes/cm^2
constriction (fibrin gel constructs [5]; 118 mM KCl, pulsed constructs grown with 200 μg/ml aprotinin): 2232±475 dynes/cm^2

CCCCC[C@H](O)/C=C/[C@@H]1[C@@H](C/C=C\CCCC(=O)O)[C@H]2CO[C@@H]1C2 [U46619]
constriction (fibrin gel constructs [5]; U46619 3×10^−7, non-pulsed constructs, 0 μg/ml aprotinin): 1160±775 dynes/cm^2
constriction (fibrin gel constructs [5]; U46619 3×10^−7, non-pulsed constructs, 200 μg/ml aprotinin): 2140±416 dynes/cm^2
constriction (fibrin gel constructs [5]; U46619 3×10^−7, pulsed constructs, 10 μg/ml aprotinin): 2670±944 dynes/cm^2
constriction (fibrin gel constructs [5]; U46619 3×10^−7, pulsed constructs, 200 μg/ml aprotinin): 973±240 dynes/cm^2

CC(C)NCC(O)c1ccc(O)c(O)c1 (stereo not shown) [isoproterenol]
relaxation (fibrin gel constructs [6]; isoproterenol compared with SNAP): much less than that of SNAP

CC(=O)N[C@@H](C(=O)O)C(C)(C)SN=O (racemic) [SNAP]
relaxation of norepinephrine constriction (fibrin gel constructs [6]; non-pulsed constructs): 42 % of constriction
relaxation of norepinephrine constriction (fibrin gel constructs [6]; pulsed constructs): fully
relaxation of norepinephrine constriction compared with 0, 10 and 20 μg/ml aprotinin (fibrin gel constructs [6]; SNAP 10^−7 and 10^−6 M, norepinephrine 10^−6 M, non-pulsed constructs, 200 μg/ml aprotinin): much greater

NC[C@H](O)c1ccc(O)c(O)c1 [norepinephrine]
constriction (fibrin gel constructs [5]; norepinephrine 3×10^−6 M, non-pulsed constructs, 0 μg/ml aprotinin): 4743±1849 dynes/cm^2
constriction (fibrin gel constructs [5]; norepinephrine 3×10^−6 M, non-pulsed constructs, 200 μg/ml aprotinin): 965±16 dynes/cm^2
constriction (fibrin gel constructs [5]; norepinephrine 3×10^−6 M, pulsed constructs, 10 μg/ml aprotinin): 4316±1738 dynes/cm^2
constriction (fibrin gel constructs [5]; norepinephrine 3×10^−6 M, pulsed constructs, 200 μg/ml aprotinin): 101±102 dynes/cm^2

From patent US20040115176A1, “Fibrin-based tissue-engineered vasculature” (priority 2002, published 2004)
